The source of these data is patent publication US20190314812A1, “SKIN SAMPLE CULTURE AND MEMBRANE TEST DEVICE” (The University of Dundee, priority 2016, published 2019).

Each structure is given as a SMILES string.

The test concerns NRF2. Description: NQO1 mRNA levels in skin cultured in the device and treated with an NRF2 activator. The class given is cell-based. To be noted: tissue treated on Day 0 versus Day 4 of culture in the 384-well device. The procedure:
FIG. 8A is a perspective view of another embodiment of the present invention 341. […] The base has holes (not shown) which receive fixings 349. […] FIG. 8B is a schematic diagram which summarises an experiment in which skin cultured in the apparatus 341 was treated with a small molecule NRF2 activator (TBE-31) in order to evaluate the intracellular viability of the tissue. NRF2 transcriptionally regulates multiple genes that play both direct and indirect roles in activating intracellular anti-oxidative pathways.

For the compound `C#C[C@]12C=C(C#N)C(=O)C=C1[C@@]1(C)C=C(C#N)C(=O)C(C)(C)[C@@H]1CC2` [TBE-31], the “NRF2 response (NQO1 mRNA levels) in cultured skin” value was “statistically the same”.
